From patent US5240935A, “Substituted 2-azabicyclo[2.2.2]octane derivatives and compositions and method of use thereof” (Sterling Winthrop Inc., priority 1992, dated 1993) come the findings set out here.

Counter-ions that a name gives are not always drawn. Like-named read-outs stand apart in the source and are kept apart here.

Assay [1] deals with T1, sigma receptors (Cavia porcellus, UniProt Q60492).
T1 construct: Brain tissue was prepared from male Hartley guinea pigs; from tissue; host or cells: brain membranes of male Hartley guinea pigs (22,000 x g pellet)
T1 sequence (Q60492 whole entry): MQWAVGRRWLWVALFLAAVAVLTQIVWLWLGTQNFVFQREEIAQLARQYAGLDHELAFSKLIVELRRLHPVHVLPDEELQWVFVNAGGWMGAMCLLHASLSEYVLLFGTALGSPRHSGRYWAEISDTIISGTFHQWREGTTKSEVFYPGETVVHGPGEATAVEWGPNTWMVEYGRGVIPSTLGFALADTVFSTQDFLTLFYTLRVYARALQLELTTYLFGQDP
The experiment in a line: sigma receptor binding, [^3 H](+)-pentazocine, guinea pig brain membranes. Further details: species or system guinea pig (male Hartley). As to conditions: for inhibition at 10 µM: read-out: Percent Inhibition of [^3 H](+)-pentazocine binding; for Ki: mean of at least two separate determinations in triplicate, EBDA/LIGAND. On the procedure:
Brain tissue was prepared from male Hartley guinea pigs (Hazelton Labs, Denver, Pa.) which were anesthetized with CO2 and sacrificed by decapitation. All animal care and use procedures were in accord with the "Guide for the Care and Use of Laboratory Animals" (NIH Publ. No. 86-23, 1985). Homogenization was performed in 10 volumes (wt/vol) of 0.32M sucrose with a Brinkmann Polytron at setting 5, 30 sec. The homogenate was centrifuged at 900×g for 10 min at 4° C., and the supernatant was collected and centrifuged at 22,000×g for 20 min at 4° C. The pellet was resuspended in 10 volumes of Tris-HCl buffer (50 mM, pH 7.4), incubated at 37° C. for 30 min, and centrifuged at 22,000×g for 20 min at 4° C. Following this, the pellet was resuspended in Tris buffer and frozen in 5-10 mL aliquots corresponding to a tissue concentration of 100 mg/mL, at -70° C. Binding characteristics of the membranes were stable for at least one month when stored at -70° C.
On the day of the assay, membrane aliquots were thawed, resuspended in fresh Tris-HCl buffer and stored on ice until use. Each assay tube contained 100 μL of [^3 H]-(+)-pentazocine at a final concentration of approximately 0.5 nM or 100 μL of [^3 H]-di(2-tolyl)guanidine (DTG) at a final concentration of approximately 4 nM, 100 μL of various concentrations of the compounds of interest, 500 μL of the tissue suspension and 300 μL of buffer to a final assay volume of 1 mL and a final tissue concentration of approximately 8 mg/tube, corresponding to approximately 0.15 mg protein/tube. Non-specific binding was defined by addition of a final concentration of 1 μM haloperidol to blank tubes for [^3 H](+)-pentazocine assay or by addition of a final concentration of 10 μM haloperidol to blank tubes for [^3 H]DTG assay. All tubes were incubated at 37° C. for 150 min in the [^3 H](+)-pentazocine assay or at 25° C. for 90 min in the [^3 H]DTG assay before termination of the reaction by rapid filtration over Whatman GF/B glass fiber filters that were presoaked in a solution of 0.5% polyethylenimine for at least 1 hr prior to use. Filters were washed with three 4 ml volumes of cold Tris-HCl buffer.
Following addition of scintillation cocktail, samples were allowed to equilibrate for at least 4 hr. The amount of bound radioactivity was determined by liquid scintillation spectrometry using a Beckman LS 5000 TA liquid scintillation counter with an efficiency for tritium of approximately 60%. The results are reported as a percent (%) inhibition of binding at 10 μM.
Scatchard parameters and inhibition constants (Ki values) for the binding of test compounds were also calculated using the EBDA/LIGAND program (McPherson, J. Pharmacol. Meth. 1985, 14, 213-228), purchased from Elsevier/Biosoft, Inc The Ki values are expressed as the mean of at least two separate determinations performed in triplicate.

Assay [2] concerns sigma receptors. Briefly: sigma receptor binding, [^3 H]di(2-tolyl)guanidine (DTG), guinea pig brain membranes. Further details: species or system guinea pig (male Hartley). To be noted: [^3 H]DTG approx. 4 nM, 25° C., 90 min; for Percent Inhibition of [^3 H]DTG binding: at 10 μM; for Ki: mean of at least two separate determinations in triplicate, EBDA/LIGAND.
Method: Brain tissue was prepared from male Hartley guinea pigs (Hazelton Labs, Denver, Pa.) which were anesthetized with CO2 and sacrificed by decapitation. […] Homogenization was performed in 10 volumes (wt/vol) of 0.32M sucrose with a Brinkmann Polytron at setting 5, 30 sec. The homogenate was centrifuged at 900×g for 10 min at 4° C., and the supernatant was collected and centrifuged at 22,000×g for 20 min at 4° C. The pellet was resuspended in 10 volumes of Tris-HCl buffer (50 mM, pH 7.4), incubated at 37° C. for 30 min, and centrifuged at 22,000×g for 20 min at 4° C. Following this, the pellet was resuspended in Tris buffer and frozen in 5-10 mL aliquots corresponding to a tissue concentration of 100 mg/mL, at -70° C. Binding characteristics of the membranes were stable for at least one month when stored at -70° C.
The subject of assay [3] is apomorphine-induced climbing. Briefly: apomorphine-induced climbing assay. The format is in vivo, mice (male, Swiss-Webster). As to conditions: Mus musculus, ip; test compound i.p.; apomorphine 5.5 mg/kg s.c.; rated 20-30 min post drug; Dunnett's Test P<0.05; read-out: Apomorphine-induced climbing assay MED (minimal effective dose for inhibition). On the procedure: (§1) Representative compounds of the invention were tested in vivo in the apomorphine-induced climbing assay and the apomorphine-induced stereotypy assay using the following procedures.
(§2) Male, Swiss-Webster mice (Taconic Farms, Germantown, New York), weight 20-30 grams, were grouped housed in colony facilities for a minimum of two days prior to testing. The colony facility was maintained on a 12 hour light/dark cycle (light: 0600-1800 hours) with water and Agway Prolab 100 rat chow available ad libitum. Each mouse was given an injection of test compound i.p. followed immediately by a s.c. injection of apomorphine 5.5 mg/kg or vehicle. All drugs were administered in a volume of 10 ml/kg body weight. The mice were then placed in individual cylindrical stainless steel climbing cages; 14.5 cm tall, 12 cm in diameter, with walls consisting of 1/16" O.D. bars spaced 0.8-1.0 cm apart, and were allowed to habituate to this environment for 20 minutes. […] Briefly, a (0) was scored for absence of any stereotypic behavior, infrequent stereotypic movements were scored as (1), a (2) was scored for permanent sniffing and a score of (3) indicated intense and continuous stereotypic behavior. Treatment means for the 10 minute totals were calculated for climbing and stereotypy. […] A minimal effective dose (MED) for inhibition was determined for each parameter based on these analyses.

Assay [4] relates to apomorphine-induced stereotypy. The experiment in a line: apomorphine-induced stereotypy assay. The format is in vivo, mice (male, Swiss-Webster). To be noted: Mus musculus, ip; test compound i.p.; apomorphine 5.5 mg/kg s.c.; rated 20-30 min post drug; Dunnett's Test P<0.05; read-out: Apomorphine-induced stereotypy assay MED (minimal effective dose for inhibition). The method, then: as §1, §2

[5] abbreviates: at 10 μM, [^3 H](+)-pentazocine approx. 0.5 nM, 37° C., 150 min.
The mark [6] stands for this setting: [^3 H](+)-pentazocine approx. 0.5 nM, 37° C., 150 min.

What is called inhibition is the share of the control response that was lost under treatment. As a reminder, the Ki is the equilibrium dissociation constant of an inhibitor or competing ligand from its target. Low readings indicate a stronger hold on the target, high ones a looser hold on the target. As for `CC(=O)C1CC2C(C(C)C)CC1N(Cc1ccccc1)C2C` (stereo not shown) [Example 11b, 1-[3-methyl-8-isopropyl-2-(phenylmethyl)-2-azabicyclo[2.2.2]octan-6-yl]-ethanone], the inhibition at 10 µM on sigma receptors [1] (setting [5]) was 77%. For the same molecule, the Ki on sigma receptors [1] (setting [6]) came to 2620 nM. Further, in the assay with sigma receptors [2], the “Percent Inhibition of [^3 H]DTG binding” value is on record as 86% and affinity was put at a Ki of 1010 nM.
On the same counts, the results for `CCC1CC2C(C(C)(C)O)CC1C(Cc1ccccc1)N2C` (stereo not drawn) [Example 4e, 3-(phenylmethyl)-8-ethyl-2,α,α-trimethyl-2-azabicyclo[2.2.2]octane-6-methanol] are 72%, 2960 nM, 75% and 2880 nM.
Turning to `CC(=O)C1(C)CC2(C)C(C)CC1N(Cc1ccccc1)C2C` (stereo not shown) [Example 8b, 1-[3,4,6,8-tetramethyl-2-(phenylmethyl) -2-azabicyclo[2.2.2]oct-6-yl]ethanone], the inhibition at 10 µM at sigma receptors [1] (setting [5]) is 47%. Also, the affinity on sigma receptors [1] (setting [6]) corresponds to a Ki of 8880 nM. Besides, in the assay with sigma receptors [2], the “Percent Inhibition of [^3 H]DTG binding” value came to 65% and the Ki came to 4560 nM.
For the molecule `CC1CC2C(CO)CC1(C)C(C)N2C` (stereo not shown) [Example 10, 2,3,4,8-tetramethyl-2-azabicyclo[2.2.2]octane-6-methanol], at sigma receptors [1], the inhibition at 10 µM amounted to 24%. Further, the “Percent Inhibition of [^3 H]DTG binding” value in the assay on sigma receptors [2] worked out at 48%.
The minimal effective dose is the smallest amount tested that counted as effective. Consider `CCOC(=O)C1CC2C(C(C)C)CC1N(Cc1ccccc1)C2C` (stereo not shown) [Example 9f, ethyl 3-methyl-8-(isopropyl)-2-(phenylmethyl)-2-azabicyclo[2.2.2]octane-6-carboxylate], for which the Ki on sigma receptors [1] (setting [6]) is 141 nM; at sigma receptors [2], 75.5 nM. In addition, the minimal effective dose in assay [3] and in assay [4] was 304 µmol/kg throughout.
For `CC=C1CC2C(C(=O)OCC)CC1C(Cc1ccccc1)N2Cc1ccccc1` (stereo not shown) [Example 3e, ethyl 2,3-di(phenylmethyl)-8-ethylidene-2-azabicyclo-[2.2.2]octane-6-carboxylatetrihydrochloride hydrobromide], at sigma receptors [1] (setting [5]), the inhibition at 10 µM was determined as 33%. Besides, the “Percent Inhibition of [^3 H]DTG binding” value in the assay on sigma receptors [2] came to 57%.
As to `CCOC(=O)C1(SC)CC2(C)C(C)CC1N(C)C2C` (stereo not shown) [Example 6, ethyl 2,3,4,8-tetramethyl-6-(methylthio)-2-azabicyclo[2.2.2]octane-6-carboxylate], the inhibition at 10 µM on sigma receptors [1] (setting [5]) is 63%. Further, the Ki at sigma receptors [1] (setting [6]) amounted to 5950 nM; at sigma receptors [2], 2710 nM. In addition, the “Percent Inhibition of [^3 H]DTG binding” value in the assay on sigma receptors [2] came to 75%.
Turning to `CC1CC2C(C(C)(C)O)CC1(C)C(C)N2Cc1ccccc1` (stereo not drawn) [Example 7, α,α,3,4,8-pentamethyl-2-(phenylmethyl)-2-azabicyclo[2.2.2]octane-6-methanol], on sigma receptors [1] (setting [5]), the inhibition at 10 µM amounted to 59%. Moreover, the Ki on sigma receptors [1] (setting [6]) came to 6060 nM; at sigma receptors [2], 6110 nM.
Take `CCOC(=O)C1CC2(C)C(C)CC1N(Cc1ccccc1)C2C` (stereo not shown) [Example 2b, ethyl 3,4,8-trimethyl-2-(phenylmethyl)-2-azabicyclo[2.2.2]octane-6-carboxylate]: the Ki on sigma receptors [1] (setting [6]) stood at 242 nM; at sigma receptors [2] it was 240 nM. In addition, the minimal effective dose amounted to 317 µmol/kg in assay [3] and 951 µmol/kg in assay [4].
For the molecule `CCOC(=O)C1CC23CCCCC2CC1N(Cc1ccccc1)C3C` (stereo not shown) [Example 5e, Ethyl 2,3,4,4a,5,6,7,8-octahydro-1-methyl-2-(phenylmethyl)-1H-3,8a-ethanoisoquinoline-10-carboxylate hydrochloride], the inhibitory constant (Ki) at sigma receptors [1] (setting [6]) came to 332 nM; on sigma receptors [2], 357 nM. In addition, the inhibition at 10 µM on sigma receptors [1] came out at 97%.
As for `CCOC(=O)C1CC2C(C)NC1CC2C(C)C` (stereo not shown) [Example 9e, ethyl 3-methyl-8-isopropyl-2-azabicyclo-[2.2.2]octane-6-carboxylate], the inhibition at 10 µM on sigma receptors [1] was determined as 30%. In the assay with sigma receptors [2], the “Percent Inhibition of [^3 H]DTG binding” value is 48%.
Take `CCOC(=O)C1(C)CC2(C)C(C)CC1N(Cc1ccccc1)C2C` (stereo not shown) [Example 8a, ethyl 2-(phenylmethyl)-3,4,6,8-tetramethyl-2-azabicyclo[2.2.2]octane-6-carboxylate]: on sigma receptors [1] (setting [6]), the affinity, expressed as Ki, was 9820 nM. Also, in the assay with sigma receptors [2], the “Percent Inhibition of [^3 H]DTG binding” value worked out at 29% and the affinity corresponds to a Ki of 6470 nM.
Regarding `CCOC(=O)C1(C(=O)OCC)CC2(C)C(C)CC1N(Cc1ccccc1)C2C` (stereo not shown) [Example 2c, diethyl 3,4,8-trimethyl-2-(phenylmethyl)-2-azabicyclo-[2.2.2] octane-6,6-dicarboxylate], the inhibition at 10 µM at sigma receptors [1] (setting [5]) was found to be 79%. This molecule gave a Ki on sigma receptors [1] (setting [6]) of 1190 nM. Besides, in the assay with sigma receptors [2], the “Percent Inhibition of [^3 H]DTG binding” value is reported as 79% and the affinity, expressed as Ki, was 1240 nM.
